ChEMBL document CHEMBL5728884, “Kinase inhibitors and uses thereof” (2021)

Target: T1, Receptor-interacting serine/threonine-protein kinase 1 (Homo sapiens, UniProt Q13546)
T1 sequence (Q13546 whole entry): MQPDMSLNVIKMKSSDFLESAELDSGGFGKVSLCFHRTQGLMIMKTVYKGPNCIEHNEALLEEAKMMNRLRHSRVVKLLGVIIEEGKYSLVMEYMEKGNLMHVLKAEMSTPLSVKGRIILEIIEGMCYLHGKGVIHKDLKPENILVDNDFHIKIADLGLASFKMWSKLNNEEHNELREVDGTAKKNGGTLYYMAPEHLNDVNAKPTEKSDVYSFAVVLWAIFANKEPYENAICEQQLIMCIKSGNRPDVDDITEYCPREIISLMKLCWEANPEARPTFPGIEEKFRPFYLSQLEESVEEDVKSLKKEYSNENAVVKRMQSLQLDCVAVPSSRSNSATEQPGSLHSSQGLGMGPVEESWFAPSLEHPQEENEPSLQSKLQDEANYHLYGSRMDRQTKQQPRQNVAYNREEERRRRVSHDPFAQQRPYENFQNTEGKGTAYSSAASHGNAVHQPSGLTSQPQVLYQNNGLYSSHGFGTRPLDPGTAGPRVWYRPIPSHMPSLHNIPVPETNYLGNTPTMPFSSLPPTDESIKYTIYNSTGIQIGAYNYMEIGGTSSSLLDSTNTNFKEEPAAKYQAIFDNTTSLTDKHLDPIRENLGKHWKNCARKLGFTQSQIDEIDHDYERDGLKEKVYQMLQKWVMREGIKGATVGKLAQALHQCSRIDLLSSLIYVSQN
Assay: Fluorescent Polarization Binding (FP Binding) Assay: Test compounds were serially diluted in DMSO at 100 fold final concentrations in the assay (1% DMSO final). In each well of a 384-well Plate were dispensed 0.1 μL of compound solution (or DMSO for controls) followed by 5 μL of GST-hRIPK1 (8-327) at twice the final concentrations in assay buffer (50 mM HEPES pH 7.5, 10 mM NaCl, 50 mM MgCl2, 0.02% CHAPS, 0.5 mM DTT and 0.01% Pluronic F127). For negative control the enzyme addition was replaced by assay buffer only.After addition of 5 μL of fluorescentlabeled ligand at twice the final concentrations in assay buffer, the plate was incubated at RT for […]. At the end, the binding was measured as FP value with the Envision (PerkinElmer) plate reader using filter for an excitation λ=531 nm FP and an emission λ=595 nm FP (S & P-pol). GST-hRIPK1 (8-327) enzyme was produced via Baculovirus expression.

Compound: CC1(C(=O)N2CCOc3ccncc3C2)CCN(c2ncc(F)cn2)CC1(F)F (configuration not stated)
- IC50: < 100 nM

Compound: Cc1nc(N2CCC(F)(C(=O)N3CCOc4c(C#N)cncc4C3)CC2)ncc1F
- IC50: < 100 nM
